Patent US20100279984A1, “PHARMACEUTICAL COMPOSITIONS CONTAINING BENFOTIAMINE AND ONE OR ONE MORE PHARMACEUTICALLY ACTIVE AGENTS FOR THE TREATMENT OF PAIN CONDITIONS OF NEUROPATHIC ORIGIN” (Merck Patent GmbH, priority 2007, published 2010)

Key:
[1] = test system: tactile allodynia induced by ligation of L5 and L6 spinal nerves; assay: Antiallodynic activity: tactile allodynia (von Frey paw withdrawal threshold) in L5/L6 spinal nerve ligated rats (Kim and Chung model); format: in vivo, female Wistar rats; conditions: for ED30 (dose producing 30% of antiallodynia): drug alone, 60 min before threshold evaluation, ±SEM; for ED30 (dose producing 30% of antiallodynia) / reduction of tactile allodynia (in words): spinal nerve ligated rats; for reduction of tactile allodynia (in words): P<0.05
Description: The purpose of this study was to assess the possible synergistic interaction between gabapentin and benfotiamine in a neuropathic pain model in the rat (Kim, S. H. and Chung, J. M.: Pain 50: 355-363 (1992)). In addition, the possible synergistic interaction between gabapentin and benfotiamine was also assessed in rats with neuropathic pain. Neuropathic pain was induced by ligation of the left L5 and L6 spinal nerves of female Wistar rats. Tactile allodynia was determined by measuring paw withdrawal in response to probing with a series of calibrated von Frey filaments.
Female Wistar rats aged 6-7 weeks (weight range, 120-140 g) from our own breeding facilities were used in this study. Animals had free access to food and drinking water before experiments. Efforts were made to minimize animal suffering and to reduce the number of animals used. All experiments followed the Guidelines on Ethical Standards for Investigation of Experimental Pain in Animals (Zimmermann. M.: Pain 16: 109-110 (1983)). Additionally, the study was approved by the Institutional Animal Care and Use Committee (Centro de Investigacion y de Estudios Avanzados del Instituto Politecnico Nacional, Mexico, D.F., Mexico).
Evaluation of antiallodynic activity: Rats were prepared according to the method of Kim and Chung (Kim, S. H. and Chung, J. M.: Pain 50: 355-363 (1992)). Animals were anesthetized with a mixture of ketamine/xylazine (45-12 mg/kg, i.p.). After surgical preparation and exposure of the dorsal vertebral column, the L5 and L6 spinal nerves were exposed and tightly ligated with 6-0 silk suture distal to the dorsal root ganglion. For sham operated rats, the nerves were exposed but not ligated. The incisions were closed, and the animals were allowed to recover for 15 days. […] Tactile allodynia was determined by measuring paw withdrawal in response to probing with a series of calibrated fine filaments (von Frey filaments). The strength of the von Frey stimuli range from 0.4 to 15 g. Withdrawal thresholds were determined by increasing and decreasing stimulus strength eliciting paw withdrawal (Chaplan, S. R., et al.: J. Neurosci Meth. 53: 55-63 (1994)). All nerve-ligated rats were verified to be allodynic (responding to a stimulus of less than 4 g).
(§1) Drugs: Gabapentin was purchased from Research Biochemicals International (Natick, Mass., USA). Benfotiamine was purchased from Sigma. Gabapentin and benfotiamine were dissolved in saline and given at a volume ratio of 4 ml/kg. Study design: Rats received the oral administration of saline or increasing doses of gabapentin (30-300 mg/kg), benfotiamine (75-300 mg/kg) or the combination of gabapentin and benfotiamine 60 min before evaluation of threshold in spinal nerve injured rats. Observer was unaware of the treatment in each animal. Rats in all groups were tested for possible side effects such as reduction of righting, stepping, corneal and pinna reflexes before and after drug treatment.
Data analysis and statistics: Curves were constructed plotting the threshold for paw withdrawal as a function of time. Threshold for paw withdrawal was also expressed as the % of antiallodynia. % antiallodynia was calculated with the following equation: % antiallodynia=((area under the withdrawal theshold against time curve (AUC) of the treatment−AUC saline)/(AUC sham−AUC saline)×100. The dose-response curves were fitted using least-squares linear regression and ED30 and its standard error (SEM) were calculated according to the method described by Tallarida (Tallarida, R. J.: Drug Synergism and Dose-Effect Data Analysis. 1st Ed., New York, Chapman and Hall/CRC, pp 1-72 (2000)).
For evaluation of the interaction between gabapentin and benfotiamine, isobolograms were constructed using ED30 values obtained when the drugs were administered alone or combined. We used ED30 instead of ED50 values because benfotiamine was not able to reach more than 30% of antiallodynia in the model. […]

[2] = test system: righting, stepping, corneal and pinna reflexes; assay: Side effect testing: righting, stepping, corneal and pinna reflexes before and after drug treatment; format: in vivo, female Wistar rats
Description: as §1

SMILES	antiallodynic effect compared with thiamine (in words) ([1]; oral administration, FIG. 5)	ED30 (dose producing 30% of antiallodynia) ([1]; oral administration)	reduction of tactile allodynia (in words) ([1]; oral administration)	% of antiallodynia reached in the model ([1]; oral benfotiamine 75-300 mg/kg, reason for using ED30 instead of ED50)	effect on assessed reflexes (righting, stepping, corneal, pinna) ([2]; rat, in vivo, po)	maximal antiallodynic effect ([1]; oral, at 300 mg/kg)	effect on assessed reflexes (righting, stepping, corneal, pinna) ([2]; oral, at the selected doses)
C/C(=C(\CCOP(=O)(O)O)SC(=O)c1ccccc1)N(C=O)Cc1cnc(C)nc1N [Benfotiamine]	higher antiallodynic effect than thiamine	47.4 ± 10 mg/kg	modest dose-dependent reduction	≤ 30%	no evidence of modification of assessed reflexes		
NCC1(CC(=O)O)CCCCC1 [Gabapentin]		16.6 ± 2.6 mg/kg	reduced in a dose-dependent manner			100%	No reduction in the assessed reflexes
